The experiment deals with Menin-MLL (Homo sapiens (Human), UniProt O00255). Put plainly: Determination of binding constants (Ki) to Menin-MLL (HTRF). The following applies: HTRF; 0.25 nM H-FL-Menin, 3.2 nM FITC-MLL-4-43, 24 hr incubation; read-out: Menin-MLL Ki HTRF Assay: Ki. (In general: TR-FRET usually uses a lanthanide donor and a delayed reading to cut background.)

In patent publication US11919901B2 (Syndax Pharmaceuticals, Inc., priority 2021, dated 2024) one finds Ki data, which are given here for 8 molecules.

Menin-MLL, sequence (O00255 whole entry): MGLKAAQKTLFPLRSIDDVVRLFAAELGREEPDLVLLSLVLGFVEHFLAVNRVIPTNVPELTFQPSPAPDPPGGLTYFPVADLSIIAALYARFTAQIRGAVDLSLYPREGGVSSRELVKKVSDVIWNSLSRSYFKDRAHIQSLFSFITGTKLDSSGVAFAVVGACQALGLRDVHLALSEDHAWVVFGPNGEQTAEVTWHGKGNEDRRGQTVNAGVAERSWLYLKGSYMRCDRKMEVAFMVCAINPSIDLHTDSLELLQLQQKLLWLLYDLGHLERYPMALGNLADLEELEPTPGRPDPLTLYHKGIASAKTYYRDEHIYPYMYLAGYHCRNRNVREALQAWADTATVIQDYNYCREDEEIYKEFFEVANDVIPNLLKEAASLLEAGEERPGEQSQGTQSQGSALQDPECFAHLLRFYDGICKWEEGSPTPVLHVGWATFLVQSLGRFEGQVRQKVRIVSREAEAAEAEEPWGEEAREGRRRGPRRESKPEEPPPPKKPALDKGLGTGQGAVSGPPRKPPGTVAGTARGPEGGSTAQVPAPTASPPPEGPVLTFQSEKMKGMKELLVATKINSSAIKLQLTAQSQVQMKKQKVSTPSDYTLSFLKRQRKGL

`C[C@@H]1COC[C@H](C)N1C(=O)c1cc(F)ccc1Oc1cncnc1N1CC2(CCN(C[C@@H]3CC[C@@H](NS(=O)(=O)NCC(F)(F)F)CO3)CC2)C1` [Compound 162, {[(3R,6S)-6-{[2-(5-{2-[(3R,5S)-3,5-Dimethylmorpholine-4-carbonyl]-4-fluorophenoxy}pyrimidin-4-yl)-2,7-diazaspiro[3.5]nonan-7-yl]methyl}oxan-3-yl]sulfamoyl}(2,2,2-trifluoroethyl)amine]: the inhibition constant (Ki) (as a rule, a dissociation constant, usually derived from enzyme kinetics or from competition with a known ligand) was under 1 nM. Next, `C[C@@H]1COC[C@H](C)N1C(=O)c1cc(F)ccc1Oc1cncnc1N1CC2(CCN(C[C@@H]3CC[C@@H](NS(=O)(=O)NC4CC4)CO3)CC2)C1` [Compound 163, N-[(3R,6S)-6-{[2-(5-{2-[(3R,5S)-3,5-Dimethylmorpholine-4-carbonyl]-4-fluorophenoxy}pyrimidin-4-yl)-2,7-diazaspiro[3.5]nonan-7-yl]methyl}oxan-3-yl](cyclopropylamino)sulfonamide]: under 1 nM; `CC(C)N(C(=O)c1cc(F)ccc1Oc1cncnc1N1CC2(CCN(C[C@@H]3CC[C@@H](NS(C)(=O)=O)CO3)CC2)C1)[C@@H]1CCOC1` [Compound 166, 5-Fluoro-N-isopropyl-2-((4-(7-(((2S,5R)-5-(methylsulfonamido)tetrahydro-2H-pyran-2-yl)methyl)-2,7-diazaspiro[3.5]nonan-2-yl)pyrimidin-5-yl)oxy)-N-((R)-tetrahydrofuran-3-yl)benzamide]: under 1 nM. The same measure for `CC(C)N(C(=O)c1cc(F)ccc1Oc1cncnc1N1CC2(CCN(C[C@@H]3CC[C@@H](NS(=O)(=O)N4CCC4)CO3)CC2)C1)[C@@H]1CCOC1` [Compound 168, 2-((4-(7-(((2S,5R)-5-(Azetidine-1-sulfonamido)tetrahydro-2H-pyran-2-yl)methyl)-2,7-diazaspiro[3.5]nonan-2-yl)pyrimidin-5-yl)oxy)-5-fluoro-N-isopropyl-N-((R)-tetrahydrofuran-3-yl)benzamide]: under 1 nM; for `CC(C)N(C(=O)c1cc(F)ccc1Oc1cncnc1N1CC2(CCN(C[C@@H]3CC[C@@H](NS(=O)(=O)N4CCCC4)CO3)CC2)C1)[C@@H]1CCOC1` [Compound 169, 5-Fluoro-N-isopropyl-2-((4-(7-(((2S,5R)-5-(pyrrolidine-1-sulfonamido)tetrahydro-2H-pyran-2-yl)methyl)-2,7-diazaspiro[3.5]nonan-2-yl)pyrimidin-5-yl)oxy)-N-((R)-tetrahydrofuran-3-yl)benzamide]: under 1 nM; for `CCN(C)S(=O)(=O)N[C@@H]1CC[C@@H](CN2CCC3(CC2)CN(c2ncncc2Oc2ccc(F)cc2C(=O)N(C(C)C)[C@@H]2CCOC2)C3)OC1` [Compound 170, 2-((4-(7-(((2S,5R)-5-((N-Ethyl-N-methylsulfamoyl)amino)tetrahydro-2H-pyran-2-yl)methyl)-2,7-diazaspiro[3.5]nonan-2-yl)pyrimidin-5-yl)oxy)-5-fluoro-N-isopropyl-N-((R)-tetrahydrofuran-3-yl)benzamide]: under 1 nM. Next, `CC(C)N(C(=O)c1cc(F)ccc1Oc1cncnc1N1CC2(CCN(C[C@@H]3CC[C@@H](NS(=O)(=O)NCC(F)(F)F)CO3)CC2)C1)[C@@H]1CCOC1` [Compound 171, 5-Fluoro-N-isopropyl-N-((R)-tetrahydrofuran-3-yl)-2-((4-(7-(((2S,5R)-5-((N-(2,2,2-trifluoroethyl)sulfamoyl)amino)tetrahydro-2H-pyran-2-yl)methyl)-2,7-diazaspiro[3.5]nonan-2-yl)pyrimidin-5-yl)oxy)benzamide]: under 1 nM; `CCNS(=O)(=O)N[C@@H]1CC[C@@H](CN2CCC3(CC2)CN(c2ncncc2Oc2ccc(F)cc2C(=O)N(C(C)C)[C@@H]2CCOC2)C3)OC1` [Compound 172, 2-((4-(7-(((2S,5R)-5-((N-ethylsulfamoyl)amino)tetrahydro-2H-pyran-2-yl)methyl)-2,7-diazaspiro[3.5]nonan-2-yl)pyrimidin-5-yl)oxy)-5-fluoro-N-isopropyl-N-((R)-tetrahydrofuran-3-yl)benzamide]: under 1 nM.
